Laboratory results reported in PubChem BioAssay AID248 (DTP/NCI, 2004).
“And” between values parts separate entries of the source, which are not always exact repeats. Equal entries are not always repeated. Toxic doses and inconclusive results are not listed. Cut-off read from the data, not from the text of the source: active = T/C of 150% or more; inactive = T/C below 125%. Square brackets hold non-standard residues; d marks the D form. Peptide text beside a SMILES is read from it. * marks the point of attachment. ξ: configuration not given here. Cbz = O=C(OCc1ccccc1)*; ξP = O=C(O)C1CCCN1

Test system: L1210 leukemia ip in BDF1 mice, survival T/C
Assay: NCI In Vivo Anticancer Drug Screen. Data for tumor model L1210 Leukemia (intraperitoneal) in B6D2F1 (BDF1) mice
Settings: endpoint: mean survival time, higher = longer survival
How it was run: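 Tumor cells were implanted, animals were treated, and survival was followed. The result divides the treated measurement by the vehicle-control measurement.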

[1] = dose: 100.0 mg/kg/injection, schedule: Q01DX009 (ip), vehicle: Klucel (hydroxypropylcellulose) (HPC)
[2] = dose: 200.0 mg/kg/injection, schedule: Q01DX009 (ip), vehicle: Klucel (hydroxypropylcellulose) (HPC)
[3] = dose: 400.0 mg/kg/injection, schedule: Q01DX009 (ip), vehicle: Klucel (hydroxypropylcellulose) (HPC)
[4] = dose: 6.25 mg/kg/injection, schedule: Q01DX009 (ip), vehicle: other
[5] = dose: 12.5 mg/kg/injection, schedule: Q01DX009 (ip), vehicle: other
[6] = dose: 100.0 mg/kg/injection, schedule: Q04DX003 (ip), vehicle: saline with Tween-80
[7] = dose: 100.0 mg/kg/injection, schedule: Q01DX001 (ip), vehicle: Klucel (hydroxypropylcellulose) (HPC)
[8] = dose: 200.0 mg/kg/injection, schedule: Q01DX001 (ip), vehicle: Klucel (hydroxypropylcellulose) (HPC)
[9] = dose: 25.0 mg/kg/injection, schedule: Q04DX003 (ip), vehicle: Klucel (hydroxypropylcellulose) (HPC)
[10] = dose: 50.0 mg/kg/injection, schedule: Q04DX003 (ip), vehicle: Klucel (hydroxypropylcellulose) (HPC)
[11] = dose: 100.0 mg/kg/injection, schedule: Q04DX003 (ip), vehicle: Klucel (hydroxypropylcellulose) (HPC)
[12] = dose: 200.0 mg/kg/injection, schedule: Q04DX003 (ip), vehicle: saline with Tween-80
[13] = dose: 400.0 mg/kg/injection, schedule: Q04DX003 (ip), vehicle: saline with Tween-80
[14] = dose: 50.0 mg/kg/injection, schedule: Q01DX009 (ip), vehicle: Klucel (hydroxypropylcellulose) (HPC)

Measured: T/C

CN(C)C(=S)S/C=C\C(=O)O
inactive: dose: 25.0 mg/kg/injection, schedule: Q04DX002 (ip), vehicle: Klucel (hydroxypropylcellulose) (HPC) 90 % of control | dose: 50.0 mg/kg/injection, schedule: Q04DX002 (ip), vehicle: Klucel (hydroxypropylcellulose) (HPC) 90 % of control | [1] 112 % of control | dose: 100.0 mg/kg/injection, schedule: Q04DX002 (ip), vehicle: Klucel (hydroxypropylcellulose) (HPC) 94 % of control | [2] 89 % of control | dose: 200.0 mg/kg/injection, schedule: Q04DX002 (ip), vehicle: Klucel (hydroxypropylcellulose) (HPC) 93 % of control and 97 % of control | [3] 99 % of control | dose: 400.0 mg/kg/injection, schedule: Q04DX002 (ip), vehicle: Klucel (hydroxypropylcellulose) (HPC) 109 % of control

O=NN(CCF)C(=O)NC1CCCCCCCCCCC1
inactive: dose: 40.0 mg/kg/injection, schedule: Q01DX001 (ip), vehicle: other 108 % of control | dose: 60.0 mg/kg/injection, schedule: Q01DX001 (ip), vehicle: other 112 % of control

CC(=O)Nc1cccc(OC(=O)Nc2cccc(Cl)c2Cl)c1
inactive: [1] 97 % of control | [2] 102 % of control | [3] 103 % of control

N#Cc1ccc(C(=O)C=C(C(F)(F)F)C(F)(F)F)cc1
inactive: [4] 95 % of control | [5] 98 % of control

FC(F)c1nc2nc(Cl)c(Cl)nc2[nH]1
inactive: dose: 25.0 mg/kg/injection, schedule: Q01DX009 (ip), vehicle: saline with Tween-80 100 % of control | dose: 25.0 mg/kg/injection, schedule: Q04DX003 (ip), vehicle: saline with Tween-80 101 % of control | dose: 50.0 mg/kg/injection, schedule: Q01DX009 (ip), vehicle: saline with Tween-80 105 % of control | dose: 50.0 mg/kg/injection, schedule: Q04DX003 (ip), vehicle: saline with Tween-80 97 % of control | [6] 102 % of control and 106 % of control

N#CCCSCCc1ccccc1
inactive: dose: 75.0 mg/kg/injection, schedule: Q01DX009 (ip), vehicle: saline with Tween-80 91 % of control | dose: 150.0 mg/kg/injection, schedule: Q01DX009 (ip), vehicle: saline with Tween-80 96 % of control

C[n+]1ncc2ccccc2c1Cc1ccc(Br)cc1
inactive: [4] 98 % of control and 103 % of control | dose: 6.25 mg/kg/injection, schedule: Q04DX002 (ip), vehicle: carboxymethylcellulose (CMC) 91 % of control | [5] 108 % of control and 86 % of control | dose: 12.5 mg/kg/injection, schedule: Q04DX002 (ip), vehicle: carboxymethylcellulose (CMC) 106 % of control | dose: 25.0 mg/kg/injection, schedule: Q04DX002 (ip), vehicle: carboxymethylcellulose (CMC) 91 % of control | dose: 25.0 mg/kg/injection, schedule: Q04DX002 (ip), vehicle: other 100 % of control and 90 % of control

O=C(COc1ccc(Cl)c(Cl)c1)Nc1ccc[n+](Cc2cccc(S(=O)(=O)F)c2)c1
inactive: [7] 96 % of control | [8] 97 % of control

CCOC(=O)C1(C(=O)OCC)C(C)CC2Nc3cc4c(cc3C(=O)N21)OCO4 (stereo not given)
inactive: [9] 94 % of control | [10] 101 % of control | [11] 97 % of control

Nc1nc(N)n(Cc2ccc3c(c2)OCO3)n1
inactive: dose: 100.0 mg/kg/injection, schedule: Q01DX001 (ip), vehicle: saline with Tween-80 106 % of control | [6] 104 % of control | dose: 200.0 mg/kg/injection, schedule: Q01DX001 (ip), vehicle: saline with Tween-80 104 % of control | dose: 200.0 mg/kg/injection, schedule: Q01DX009 (ip), vehicle: saline with Tween-80 87 % of control | [12] 101 % of control | dose: 400.0 mg/kg/injection, schedule: Q01DX001 (ip), vehicle: saline with Tween-80 108 % of control | dose: 400.0 mg/kg/injection, schedule: Q01DX009 (ip), vehicle: saline with Tween-80 101 % of control | [13] 102 % of control

O=C(NCC(=O)N1CCCC1C(=O)O)OCc1ccccc1 (stereo not drawn) (Cbz-Gly-[ξP]-OH)
inactive: [14] 93 % of control | [10] 96 % of control | [1] 97 % of control | [11] 91 % of control | [2] 93 % of control | dose: 200.0 mg/kg/injection, schedule: Q04DX003 (ip), vehicle: Klucel (hydroxypropylcellulose) (HPC) 93 % of control

OC(/C=C/C(O)c1ccccc1)c1ccccc1 (stereo not given)
inactive: dose: 12.5 mg/kg/injection, schedule: Q01DX009 (ip), vehicle: Klucel (hydroxypropylcellulose) (HPC) 97 % of control | dose: 12.5 mg/kg/injection, schedule: Q04DX003 (ip), vehicle: Klucel (hydroxypropylcellulose) (HPC) 95 % of control | dose: 25.0 mg/kg/injection, schedule: Q01DX009 (ip), vehicle: Klucel (hydroxypropylcellulose) (HPC) 98 % of control | [9] 100 % of control | [14] 98 % of control | [10] 94 % of control

CN(C)c1ccccc1C#N
inactive: dose: 100.0 mg/kg/injection, schedule: Q01DX009 (ip), vehicle: carboxymethylcellulose (CMC) 93 % of control and 103 % of control | dose: 100.0 mg/kg/injection, schedule: Q04DX002 (ip), vehicle: carboxymethylcellulose (CMC) 108 % of control | dose: 100.0 mg/kg/injection, schedule: Q04DX003 (ip), vehicle: carboxymethylcellulose (CMC) 106 % of control | dose: 200.0 mg/kg/injection, schedule: Q01DX009 (ip), vehicle: carboxymethylcellulose (CMC) 98 % of control and 104 % of control | dose: 200.0 mg/kg/injection, schedule: Q04DX002 (ip), vehicle: carboxymethylcellulose (CMC) 94 % of control | dose: 200.0 mg/kg/injection, schedule: Q04DX003 (ip), vehicle: carboxymethylcellulose (CMC) 101 % of control | dose: 400.0 mg/kg/injection, schedule: Q01DX009 (ip), vehicle: carboxymethylcellulose (CMC) 113 % of control | dose: 400.0 mg/kg/injection, schedule: Q04DX002 (ip), vehicle: carboxymethylcellulose (CMC) 115 % of control | dose: 400.0 mg/kg/injection, schedule: Q04DX003 (ip), vehicle: carboxymethylcellulose (CMC) 98 % of control

CCNc1c([N+](=O)[O-])cc(S(=O)(=O)O)cc1[N+](=O)[O-]
inactive: dose: 100.0 mg/kg/injection, schedule: Q04DX003 (ip), vehicle: saline 116 % of control | dose: 200.0 mg/kg/injection, schedule: Q04DX003 (ip), vehicle: saline 105 % of control | dose: 400.0 mg/kg/injection, schedule: Q04DX003 (ip), vehicle: saline 95 % of control

CC1(NO)CCCCC1
inactive: [7] 100 % of control | [8] 94 % of control

Cc1cccc2ccc3ccc4ccccc4c3c12
inactive: [6] 96 % of control | [12] 89 % of control | [13] 92 % of control
